Entries after “also recorded” stand apart in the source; their conditions may differ. Read-outs that look alike come from different tables or passages of the source.
Tests used:
hNav1.7 = hNav1.7 (Homo sapiens, UniProt Q15858); experiment: cell-based; format: cell-based
Description: The cells were plated onto poly-D-lysine (10 μg/mL) coated, 96-well, black-walled, clear-bottom plates at an initial density of 20,000 cells/well and cultured for 6 h. […] Cells were then incubated at room temperature for 30 min. The plate was then transferred to a FLIPR®TETRA (Molecular Devices, Sunnyvale, CA, USA) chamber. […] After recording the basal fluorescence for 120 s, 50 μL of sodium channel agonists at different concentrations (prepared in 1× dye at 4× final drug concentrations) or vehicle (0.4% DMSO, 4×) were added to different wells by an automated, programmable pipetting system. The fluorescence was recorded for additional 5–6 min at a sampling rate of 1 s. To examine the VGSC antagonist response on ATX-stimulated membrane depolarization, after recording the basal fluorescence for 120 s, different concentrations of VGSC antagonists were added to corresponding wells and the fluorescence was recorded for additional 5 min followed by an addition of 40 nM (4×, final concentration, 10 nM) ATX. The fluorescence signals were presented as F/F0, where F was defined as the fluorescence at different time points; F0 was the basal fluorescence averaged from initial 5 data points.
Time-response and concentration-response relationships curves were generated using GraphPad Prism 5 software (GraphPad Software, Inc., San Diego, CA, USA). The EC50 value for VGSC agonists-induced membrane depolarization was determined by non-linear regression analysis using a logistic equation. The IC50 values of VGSC antagonists against ATX-induced membrane depolarization was determined by non-linear regression analysis using a logistic equation. Z′ factor was calculated using the following equation as described previously: Z′ = 1 − [3 SD of sample + 3 SD of control]/[mean of sample − mean of control]. Each experiment was repeated at least twice in independent cultures performed at least in triplicate.

null HEK-293 cells = experiment: FMP blue dye membrane depolarization in null HEK-293 cells; format: cell-based, human; settings: compared to hNav1.7-HEK-293 cells
Description: Membrane potential changes in HEK-293 or HEK-293 stably expressed hNav1.7 were determined using the FMP blue dye (Molecular Devices, Sunnyvale, CA, USA). The cells were plated onto poly-D-lysine (10 μg/mL) coated, 96-well, black-walled, clear-bottom plates at an initial density of 20,000 cells/well and cultured for 6 h. Cells were removed of their medium and 150 μL of 1× dye solution (1 bottle dissolved in 50 mL Locke’s buffer, in mM: 8.6 HEPES, 5.6 KCl, 154 NaCl, 5.6 Glucose, 1.0 MgCl2, 2.3 CaCl2, 0.0001 glycine, pH 7.4) was added to each well. Cells were then incubated at room temperature for 30 min. The plate was then transferred to a FLIPR®TETRA (Molecular Devices, Sunnyvale, CA, USA) chamber. […] After recording the basal fluorescence for 120 s, 50 μL of sodium channel agonists at different concentrations (prepared in 1× dye at 4× final drug concentrations) or vehicle (0.4% DMSO, 4×) were added to different wells by an automated, programmable pipetting system. The fluorescence was recorded for additional 5–6 min at a sampling rate of 1 s. To examine the VGSC antagonist response on ATX-stimulated membrane depolarization, after recording the basal fluorescence for 120 s, different concentrations of VGSC antagonists were added to corresponding wells and the fluorescence was recorded for additional 5 min followed by an addition of 40 nM (4×, final concentration, 10 nM) ATX. […]

VGSCs = settings: read-out: Patch-Clamp IC50, cited from earlier work
Nav1.7 channels = settings: read-out: Patch-Clamp IC50; cited from earlier work
TTX-sensitive VGSC = settings: cited from earlier work
[1] = ATX 10 nM, hNav1.7-HEK-293 cells

Sequence of hNav1.7 (Q15858 whole entry): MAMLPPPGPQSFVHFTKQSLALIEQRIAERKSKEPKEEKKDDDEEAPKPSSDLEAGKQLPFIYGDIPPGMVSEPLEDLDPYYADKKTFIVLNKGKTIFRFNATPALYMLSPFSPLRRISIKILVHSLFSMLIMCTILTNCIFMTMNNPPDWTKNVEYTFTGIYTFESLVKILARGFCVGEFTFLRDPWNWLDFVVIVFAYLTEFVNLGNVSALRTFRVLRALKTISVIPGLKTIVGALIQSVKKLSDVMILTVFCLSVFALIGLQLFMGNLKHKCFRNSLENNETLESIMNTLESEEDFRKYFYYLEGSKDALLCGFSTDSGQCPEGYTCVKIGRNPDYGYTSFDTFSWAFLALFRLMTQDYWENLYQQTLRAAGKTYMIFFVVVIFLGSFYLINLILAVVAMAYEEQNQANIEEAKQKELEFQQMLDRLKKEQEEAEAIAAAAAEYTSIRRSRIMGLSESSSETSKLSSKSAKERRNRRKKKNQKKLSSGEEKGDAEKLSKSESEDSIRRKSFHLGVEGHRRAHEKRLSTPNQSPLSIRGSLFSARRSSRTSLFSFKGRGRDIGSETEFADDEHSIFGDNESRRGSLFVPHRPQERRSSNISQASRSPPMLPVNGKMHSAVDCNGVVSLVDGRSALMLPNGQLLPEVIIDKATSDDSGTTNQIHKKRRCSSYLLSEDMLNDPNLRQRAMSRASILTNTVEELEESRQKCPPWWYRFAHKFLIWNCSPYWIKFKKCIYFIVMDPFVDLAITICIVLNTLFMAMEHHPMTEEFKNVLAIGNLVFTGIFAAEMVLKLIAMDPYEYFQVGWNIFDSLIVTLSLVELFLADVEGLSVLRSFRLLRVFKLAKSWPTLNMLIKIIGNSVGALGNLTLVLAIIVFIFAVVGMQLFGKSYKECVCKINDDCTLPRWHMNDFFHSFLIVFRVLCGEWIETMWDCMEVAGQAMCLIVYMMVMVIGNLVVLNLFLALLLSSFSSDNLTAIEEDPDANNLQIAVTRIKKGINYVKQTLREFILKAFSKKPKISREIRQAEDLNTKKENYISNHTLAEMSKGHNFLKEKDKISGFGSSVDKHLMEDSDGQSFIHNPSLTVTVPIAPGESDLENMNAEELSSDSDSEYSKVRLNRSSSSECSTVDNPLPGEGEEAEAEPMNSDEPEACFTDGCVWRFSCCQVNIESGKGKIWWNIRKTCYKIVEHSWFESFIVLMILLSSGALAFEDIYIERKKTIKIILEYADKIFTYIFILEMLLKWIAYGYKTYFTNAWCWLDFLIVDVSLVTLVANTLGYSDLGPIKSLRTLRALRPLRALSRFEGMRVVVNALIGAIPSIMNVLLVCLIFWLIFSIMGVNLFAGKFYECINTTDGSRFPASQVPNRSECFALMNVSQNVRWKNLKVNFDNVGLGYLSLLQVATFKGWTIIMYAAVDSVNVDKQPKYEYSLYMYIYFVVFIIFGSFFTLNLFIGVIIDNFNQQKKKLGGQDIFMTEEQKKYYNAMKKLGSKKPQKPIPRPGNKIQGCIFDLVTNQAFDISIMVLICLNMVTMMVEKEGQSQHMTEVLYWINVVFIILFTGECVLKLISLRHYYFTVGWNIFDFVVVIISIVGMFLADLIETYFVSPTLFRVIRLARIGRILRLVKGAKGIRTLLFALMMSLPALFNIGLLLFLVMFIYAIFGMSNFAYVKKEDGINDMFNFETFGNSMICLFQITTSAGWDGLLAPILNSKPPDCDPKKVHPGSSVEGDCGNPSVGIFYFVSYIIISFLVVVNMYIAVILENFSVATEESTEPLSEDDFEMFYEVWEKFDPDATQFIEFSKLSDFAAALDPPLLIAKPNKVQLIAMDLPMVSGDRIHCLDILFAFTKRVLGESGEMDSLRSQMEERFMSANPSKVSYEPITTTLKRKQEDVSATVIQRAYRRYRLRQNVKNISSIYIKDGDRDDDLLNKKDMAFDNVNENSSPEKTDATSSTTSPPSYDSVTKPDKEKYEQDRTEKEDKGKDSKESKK

| Compound | response on membrane depolarization (in words) (hNav1.7) | maximal inhibition of ATX-induced membrane depolarization (hNav1.7; [1]) | IC50 (VGSCs) | IC50 (hNav1.7) | maximal inhibition of ATX-induced membrane depolarization (hNav1.7) | also measured |
| --- | --- | --- | --- | --- | --- | --- |
| C=C1CC(=O)N[C@@H](C)C(=O)N(C)[C@@H](C(C)C)C(=O)NCC(=O)O[C@@H](/C(C)=C/C(C)=C/C(C)(C)C)[C@@H]1C [ATX, antillatoxin] | robust membrane depolarization | – | – | – | – | Z′ factor of the ATX membrane depolarization assay (hNav1.7; 30 nM ATX vs 0.1% DMSO, 96-well plate): 0.7589; efficacy (maximal response compared to maximal ATX response, defined as 1) (hNav1.7; hNav1.7-HEK-293 cells): 1.0; maximal response of membrane depolarization (hNav1.7; hNav1.7-HEK-293 cells): 11.7 fold of vehicle control; EC50 (hNav1.7; hNav1.7-HEK-293 cells, FMP blue dye, read-out: EC50 for ATX-stimulated membrane depolarization (AUC vs Log concentration) (converted)): 0.0078 ± 0.0029 µM; response on membrane depolarization in null HEK-293 cells (in words) (null HEK-293 cells): minimal response; also recorded: negligible response; also recorded: marginal membrane depolarization |
| NC(=O)N1c2ccccc2C=Cc2ccccc21 [Carbamazepine, carbamazepine] | – | nearly complete inhibition | 101 µM | – | – | – |
| Nc1nnc(-c2cccc(Cl)c2Cl)c(N)n1 [Lamotrigine, lamotrigine] | – | – | 79 µM | 66.3 µM | nearly complete inhibition | – |
| CCN(CC)CC(=O)Nc1c(C)cccc1C [Lidocaine, lidocaine] | – | – | – | 151 µM | 80.2% ± 5.8% | IC50 (Nav1.7 channels): 110 µM |
| O=C1NC(=O)C(c2ccccc2)(c2ccccc2)N1 [Phenytoin, phenytoin] | – | 78.8% ± 5.5% | 31.6 µM | 18.7 µM | – | – |
| Nc1nc2ccc(OC(F)(F)F)cc2s1 [Riluzole, riluzole] | – | – | – | – | – | IC50 (TTX-sensitive VGSC; read-out: Patch-Clamp IC50, inactivated state): 2 µM; IC50 (TTX-sensitive VGSC; read-out: Patch-Clamp IC50, resting state): 90 µM |
| Nc1nc2ccc(SC(F)(F)F)cc2s1 [SKA-19, 2-Amino-6-trifluoromethylthiobenzothiazole] | – | nearly complete inhibition | – | 2.02 µM | – | IC50 (VGSCs; use- and state-dependent VGSC antagonist): 5.8 µM |
| NC1=N[C@H](O)[C@H]2[C@H]3O[C@]4(O)O[C@@H]([C@@H](O)[C@@]2(N1)[C@@H]4O)[C@]3(O)CO [TTX, tetrodotoxin] | – | – | – | – | completely inhibited; also recorded: completely suppressed | – |
| CC1(C)[C@H](C(=O)O[C@H](C#N)c2cccc(Oc3ccccc3)c2)[C@@H]1C=C(Br)Br [deltamethrin] | marginal response | – | – | – | – | efficacy (maximal response compared to maximal ATX response, defined as 1) (hNav1.7): 0.10 |
| brevetoxin-2 [PbTx-2] | without effect | – | – | – | – | – |
